Columns and labels:
[1] = Incorporation and extension of 5-nitroindole-5′-triphosphate; format: biochemical; conditions: 50° C., identical conditions as 4D11 and 5D4; data not shown
Description: 50 pmol of ^32P-labelled primer and 100 pmol of template in a volume of 44 μl were annealed in 1× Taq buffer. 4D11 or 5D4 polymerase as cell lysate (6 μl) was added and reactions were incubated at 50° C. for 15 minutes followed by addition of d5NITP (1 μl in total volume of 50 µL final dNTP concentration 40 μM). 8 μl samples were taken at various time points and added to 8 μl stop solution (7M urea, 100 mM EDTA containing xylene cyanol F). At the end of the time course the 4 native dNTPs were added (final concentration each dNTP 40 μM) and reactions incubated at 50° C. for a further 30 minutes.

[2] = Catalytic efficiency kcat/Km; format: biochemical

Molecule	incorporation and extension of d5NITP [1]	kcat/Km relative to Taq wild type [2]
wtTaq: Thermus aquaticus (Taq) wild type DNA polymerase [reference compound]	almost undetectable extension reactions	–
M1: Taq mutant G84A, D144G, K314R, E520G, F598L, A608V, E742G; SEQ ID NO: 1 (protein, Mutant Thermus aquaticus DNA polymerase) MRGMLPLFEPKGRVLLVDGHHLAYRTFHALKGLTTSRGEPVQAVYGFAKSLLKALKEDGDAVIVVFDAKAPSFRHEAYGGYKAARAPTPEDFPRQLALIKELVDLLGLARLEVPGYEADDVLASLAKKAEKEGYEVRILTADKGLYQLLSDRIHVLHPEGYLITPAWLWEKYGLRPDQWADYRALTGDESDNLPGVKGIGEKTARKLLEEWGSLEALLKNLDRLKPAIREKILAHMDDLKLSWDLAKVRTDLPLEVDFAKRREPDRERLRAFLERLEFGSLLHEFGLLESPKALEEAPWPPPEGAFVGFVLSRREPMWADLLALAAAAGGRVHRAPEPYKALRDLKEARGLLAKDLSVLALREGLGLPPGDDPMLLAYLLDPSNTTPEGVARRYGGEWTEEAGERAALSERLFANLWGRLEGEERLLWLYREVERPLSAVLAHMEATGVRLDVAYLRALSLEVAEEIARLEAEVFRLAGHPFNLNSRDQLERVLFDELGLPAIGKTEKTGKRSTSAAVLGALREAHPIVEKILQYRELTKLKSTYIDPLPDLIHPRTGRLHTRFNQTATATGRLSSSDPNLQNIPVRTPLGQRIRRAFIAEEGWLLVVLDYSQIELRVLAHLSGDENLIRVFQEGRDIHTETASWMFGVPREAVDPLMRRAAKTINFGVLYGMSAHRLSQELAIPYEEAQAFIERYFQSFPKVRAWIEKTLEEGRRRGYVETLFGRRRYVPDLEARVKSVRGAAERMAFNMPVQGTAADLMKLAMVKLFPRLEEMGARMLLQVHDELVLEAPKERAEAVARLAKEVMEGVYPLAVPLEVEVGIGEDWLSAKE	–	14%
